Laboratory results reported in patent publication US6723727B1, “Substituted purine derivatives, processes for their preparation, their use, and compositions comprising them” (Hoechst Aktiengesellschaft, priority 1996, dated 2004).

Target: human vitronectin receptor αvβ3 (Homo sapiens, UniProt P05106+P06756)
Experiment: Inhibition of binding of kistrin to human vitronectin receptor (αvβ3 ELISA test, K/VnR)
Conditions: for K/VnR Inhibition at 10 μM (in %): 10 μM test compound

human vitronectin receptor αvβ3, sequence (P06756 31-889 limits assumed): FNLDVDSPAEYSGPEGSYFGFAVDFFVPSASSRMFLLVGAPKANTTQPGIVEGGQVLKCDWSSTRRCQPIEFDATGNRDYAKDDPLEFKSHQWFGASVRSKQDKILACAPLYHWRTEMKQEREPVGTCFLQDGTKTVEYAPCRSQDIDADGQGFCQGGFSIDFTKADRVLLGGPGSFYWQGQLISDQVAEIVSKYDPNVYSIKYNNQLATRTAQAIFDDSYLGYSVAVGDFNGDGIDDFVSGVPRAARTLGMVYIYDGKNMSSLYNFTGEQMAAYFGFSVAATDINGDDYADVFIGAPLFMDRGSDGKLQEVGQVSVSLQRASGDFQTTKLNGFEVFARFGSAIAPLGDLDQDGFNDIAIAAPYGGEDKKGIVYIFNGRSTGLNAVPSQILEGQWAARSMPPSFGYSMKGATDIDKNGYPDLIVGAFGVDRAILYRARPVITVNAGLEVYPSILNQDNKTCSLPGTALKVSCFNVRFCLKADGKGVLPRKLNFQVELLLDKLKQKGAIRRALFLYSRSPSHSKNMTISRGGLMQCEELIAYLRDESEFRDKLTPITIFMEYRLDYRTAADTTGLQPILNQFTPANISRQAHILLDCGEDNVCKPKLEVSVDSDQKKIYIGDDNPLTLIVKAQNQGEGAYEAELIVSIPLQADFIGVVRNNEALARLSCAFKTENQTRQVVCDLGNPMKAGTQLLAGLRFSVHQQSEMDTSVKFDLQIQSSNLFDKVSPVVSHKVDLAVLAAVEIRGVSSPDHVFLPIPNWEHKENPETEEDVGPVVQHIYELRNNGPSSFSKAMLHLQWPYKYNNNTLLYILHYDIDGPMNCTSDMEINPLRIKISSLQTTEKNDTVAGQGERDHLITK
human vitronectin receptor αvβ3, sequence (P06756 891-1048 limits assumed): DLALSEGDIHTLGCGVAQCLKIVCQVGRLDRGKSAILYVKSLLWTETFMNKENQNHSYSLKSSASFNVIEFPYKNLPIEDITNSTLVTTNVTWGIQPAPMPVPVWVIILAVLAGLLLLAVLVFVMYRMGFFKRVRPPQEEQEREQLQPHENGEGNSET
human vitronectin receptor αvβ3, sequence (P05106 27-788): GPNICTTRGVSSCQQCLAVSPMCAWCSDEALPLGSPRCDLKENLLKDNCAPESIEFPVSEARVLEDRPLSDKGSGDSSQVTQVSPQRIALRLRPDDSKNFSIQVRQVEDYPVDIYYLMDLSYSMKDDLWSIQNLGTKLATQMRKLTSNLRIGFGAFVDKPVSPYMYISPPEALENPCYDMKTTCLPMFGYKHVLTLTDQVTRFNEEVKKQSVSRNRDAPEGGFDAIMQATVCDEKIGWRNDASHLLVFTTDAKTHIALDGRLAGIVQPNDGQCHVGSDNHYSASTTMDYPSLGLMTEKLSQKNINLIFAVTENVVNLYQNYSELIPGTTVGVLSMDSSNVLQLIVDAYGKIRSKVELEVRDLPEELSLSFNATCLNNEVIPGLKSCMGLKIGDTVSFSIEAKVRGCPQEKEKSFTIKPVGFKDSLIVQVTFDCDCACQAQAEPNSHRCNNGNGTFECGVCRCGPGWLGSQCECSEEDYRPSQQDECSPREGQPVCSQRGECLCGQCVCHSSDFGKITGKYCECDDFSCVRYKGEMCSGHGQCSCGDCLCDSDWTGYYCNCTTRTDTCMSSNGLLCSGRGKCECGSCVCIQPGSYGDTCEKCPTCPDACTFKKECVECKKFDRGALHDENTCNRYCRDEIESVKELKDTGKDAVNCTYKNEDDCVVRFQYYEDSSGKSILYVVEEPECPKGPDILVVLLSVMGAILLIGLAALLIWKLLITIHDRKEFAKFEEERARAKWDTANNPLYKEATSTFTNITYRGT

| SMILES | IC50 [nM] | K/VnR Inhibition at 10 μM (in %) [%] |
| --- | --- | --- |
| N=C(N)NCCCCCNc1ncnc2c1ncn2C[C@H](NC(=O)OCc1ccccc1)C(=O)O [Example 1, N^6-(1-(5-Guanidinopentyl))-N^9-(3-(2S-(benzyloxycarbonylamino)propionic acid))-adenine] | 1100 |  |
| N=C(N)NCCCCNc1ncnc2c1ncn2C[C@H](NC(=O)OCc1ccccc1)C(=O)O [Example 2, N^6-(1-(4-Guanidinobutyl))-N^9-(3-(2S-(benzyloxycarbonylamino)propionic acid))-adenine] | 700 |  |
| N=C(N)NCCCNc1ncnc2c1ncn2C[C@H](NC(=O)OCc1ccccc1)C(=O)O [Example 3, N^6-(1-(3-Guanidinopropyl))-N^9-(3-(2S-(benzyloxycarbonylamino)propionic acid))-adenine] | 2200 |  |
| O=C(N[C@@H](Cn1cnc2c(NCCCCNC3=NCCN3)ncnc21)C(=O)O)OCc1ccccc1 [Example 4, N^6-(1-(4-(4,5-Dihydro-1H-imidazol-2-ylamino)butyl))-N^9-(3-(2S-(benzyloxycarbonylamino)propionic acid))-adenine] | 150 |  |
| N=C(N)NCCCn1cnc2c(NCC[C@H](NC(=O)OCc3ccccc3)C(=O)O)ncnc21 [Example 12, N^6-(4-(2S-(Benzyloxycarbonylamino)butyric acid))-N^9-(1-(3-guanidinylpropyl))-adenine] | 580 |  |
| O=C(N[C@@H](CCNc1ncnc2c1ncn2CCCNC1=NCCN1)C(=O)O)OCc1ccccc1 [Example 13, N^6-(4-(2S-(Benzyloxycarbonylamino)butyric acid))-N^9-(1-(3-(4,5-dihydro-1H-imidazol-2-ylamino)propyl))-adenine] | 190 |  |
| N=C(N)NCCCCCn1cnc2c(NC[C@H](NC(=O)OCc3ccccc3)C(=O)O)ncnc21 [Example 14, N^6-(3-(2S-(Benzyloxycarbonylamino)propionic acid))-N^9-(1-(5-guanidinyl-pentyl))-adenine] | 650 |  |
| NCCCCCn1cnc2c(NC[C@H](NC(=O)OCc3ccccc3)C(=O)O)ncnc21 [Example 14c, N^6-(3-(2S-(Benzyloxycarbonylamino)propionic acid))-N^9-(1-(5-amino-pentyl))-adenine] |  | 22 |
| O=C(N[C@@H](CNc1ncnc2c1ncn2CCCCCNC1=NCCN1)C(=O)O)OCc1ccccc1 [Example 15, N^6-(3-(2S-(Benzyloxycarbonylamino)propionic acid))-N^9-(1-(5-(4,5-dihydro-1H-imidazol-2-ylamino)pentyl))-adenine] | 210 |  |
| N=C(N)NCCCn1cnc2c(NC[C@H](NC(=O)OCc3ccccc3)C(=O)O)ncnc21 [Example 16, N^6-(3-(2S-(Benzyloxycarbonylamino)propionic acid))-N^9-(1-(3-guanidinylpropyl))-adenine] | 540 |  |
| NCCCn1cnc2c(NC[C@H](NC(=O)OCc3ccccc3)C(=O)O)ncnc21 [Example 16b, N^6-(3-(2S-(Benzyloxycarbonylamino)propionic acid))-N^9-(1-(3-amino-propyl))-adenine] |  | 29 |
| N=C(N)NCCCCn1cnc2c(NC[C@H](NC(=O)OCc3ccccc3)C(=O)O)ncnc21 [Example 17, N^6-(3-(2S-(Benzyloxycarbonylamino)propionic acid))-^9-(1-(4guanidinyl-butyl))-adenine] | 170 |  |
| O=C(N[C@@H](CNc1ncnc2c1ncn2CCCCNC1=NCCN1)C(=O)O)OCc1ccccc1 [Example 18] | 75 |  |
| O=C(N[C@@H](Cn1cnc2c(N3CCC(C(=O)NC4=NCCCN4)CC3)ncnc21)C(=O)O)OCc1ccccc1 [Example 19, 2S-Benzyloxycarbonylamino-3-(6-(4-(1,4,5,6-tetrahydropyrimidin-2-yl-carbamoyl)piperidin-1-yl)purin-9-yl)propionic acid] | 4 |  |
| O=C(N[C@@H](Cn1cnc2c(NCCCCNc3nc4ccccc4[nH]3)ncnc21)C(=O)O)OCc1ccccc1 [Example 23, 3-(6-((4-(Benzimidazol-2-ylamino)butyl)amino)purin-9-yl)-2S-benzyloxycarbonylaminopropionic Acid] | 160 |  |
| O=C(N[C@@H](Cn1cnc2c(N3CCC(CNC4=NCCN4)CC3)ncnc21)C(=O)O)OCc1ccccc1 [Example 24, 2S-Benzyloxycarbonylamino-3-(6-(4-((4,5-dihydro-1H-imidazol-2-ylamino)-methyl)piperidin-1-yl)purin-9-yl)propionic Acid] | 52 |  |
| O=C(N[C@H](Cn1cnc2c(N3CCC(CNC4=NCCN4)CC3)ncnc21)C(=O)O)OCc1ccccc1 [Example 25, 2R-Benzyloxycarbonylamino-3-(6-(4-((4,5-dihydro-1H-imidazol-2-ylamino)-methyl)piperidin-1-yl)purin-9-yl)propionic Acid] | 345 |  |
| N=C(N)NCC1CCN(c2ncnc3c2ncn3C[C@H](NC(=O)OCc2ccccc2)C(=O)O)CC1 [Example 26, 2S-Benzyloxycarbonylamino-3-(6-(4-(guanidinomethyl)piperidin-1-yl)purin-9-yl)propionic Acid] | 360 |  |
